Data on 33 compounds can be found in patent US9199981B2 (NOVARTIS AG, priority 2011, dated 2015).

Sequence of c-kit (P10721 26-976): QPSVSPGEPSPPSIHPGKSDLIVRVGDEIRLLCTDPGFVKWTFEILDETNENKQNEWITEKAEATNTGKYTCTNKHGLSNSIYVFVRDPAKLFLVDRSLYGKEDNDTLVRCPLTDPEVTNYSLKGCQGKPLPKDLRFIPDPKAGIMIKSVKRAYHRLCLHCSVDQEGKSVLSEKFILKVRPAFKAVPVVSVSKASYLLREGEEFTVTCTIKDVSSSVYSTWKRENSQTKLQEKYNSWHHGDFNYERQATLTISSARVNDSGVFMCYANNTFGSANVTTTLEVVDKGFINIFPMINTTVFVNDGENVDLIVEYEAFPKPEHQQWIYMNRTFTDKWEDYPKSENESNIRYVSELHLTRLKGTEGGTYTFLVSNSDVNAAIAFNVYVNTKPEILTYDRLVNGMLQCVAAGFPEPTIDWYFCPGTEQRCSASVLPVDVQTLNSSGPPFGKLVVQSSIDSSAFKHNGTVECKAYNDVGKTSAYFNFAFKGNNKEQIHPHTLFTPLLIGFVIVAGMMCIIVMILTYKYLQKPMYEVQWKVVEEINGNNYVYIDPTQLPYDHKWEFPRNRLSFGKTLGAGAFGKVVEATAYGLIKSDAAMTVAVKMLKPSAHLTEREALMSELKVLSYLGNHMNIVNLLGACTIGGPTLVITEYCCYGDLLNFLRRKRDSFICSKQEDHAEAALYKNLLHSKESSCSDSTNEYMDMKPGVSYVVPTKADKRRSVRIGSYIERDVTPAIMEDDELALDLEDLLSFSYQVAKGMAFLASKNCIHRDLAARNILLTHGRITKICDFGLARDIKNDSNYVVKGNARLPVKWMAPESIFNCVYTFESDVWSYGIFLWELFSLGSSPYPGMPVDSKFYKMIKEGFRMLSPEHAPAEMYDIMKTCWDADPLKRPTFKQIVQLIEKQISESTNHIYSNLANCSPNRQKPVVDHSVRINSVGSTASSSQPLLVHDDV

The target in the assay is c-kit (Homo sapiens (Human), UniProt P10721). Description: Mo7e cell proliferation assay (SCF dependent proliferation). The following applies: Mo7e cells stimulated with human recombinant SCF, 48 hours, 1% FBS. It counts as cell-based. On the procedure:
Compounds of Formula (I) and Formula (II) provided herein were assayed to measure their capacity to inhibit c-kit and PDGFR kinases using the appropriate assay described below: c-Kit inhibition was evaluated using the Mo7e cell proliferation assay, and PDGFR inhibition was evaluated using the Rat A10 cell proliferation assay and the Human TG/HA-VSMC cell proliferation assay.
Mo7e Cell Proliferation Assay
The compounds of Table 1 and Table 2 were tested for inhibition of SCF dependent proliferation using human Mo7e cells which endogenously express c-kit in a 384 well format. […] After 48 hours of incubation at 37° C., cell viability was measured by adding 25 uL of CellTiter Glo (Promega) to the cells and the luminescence was measured by a CLIPR CCD camera (Molecular Devices).
The IC50 value is given as that concentration of the test compound in question that provoke a response halfway between the baseline and maximum responses.
Take `Cc1ccc(-c2noc(C3CC(F)(F)C3)n2)cc1NC(=O)c1cnc2ccc(-c3cn[nH]c3)cn12` [F40, N-(5-(5-(3,3-difluorocyclobutyl)-1,2,4-oxadiazol-3-yl)-2-methylphenyl)-6-(1H-pyrazol-4-yl)imidazo[1,2-a]pyridine-3-carboxamide]: the IC50 amounted to 0.009 µM. The result for `Cc1ccc(-c2noc(C3CC(F)(F)C3)n2)cc1NC(=O)c1cnc2ccc(-c3cnn(CCO)c3)cn12` [F41] reads 0.011 µM; that for `Cc1ccc(-c2noc(C3CC(F)(F)C3)n2)cc1NC(=O)c1cnc2ccc(-c3cnn(C)c3)cn12` [F42], 0.007 µM. In the case of `Cc1ccc(-c2noc(C3CC(F)(F)C3)n2)cc1NC(=O)c1cnc2ccc(-c3ccn(C)n3)cn12` [F43] it was 0.012 µM. The result for `Cc1ccc(-c2noc(C3CC(F)(F)C3)n2)cc1NC(=O)c1cnc2ccc(-c3cnn(CC(C)(C)O)c3)cn12` [F44] reads 0.006 µM; that for `Cc1ccc(-c2noc(C3CC(n4cccn4)C3)n2)cc1NC(=O)c1cnc2ccccn12` (stereo not drawn) [F45, N-(5-(5-(3-(1H-pyrazol-1-yl)cyclobutyl)-1,2,4-oxadiazol-3-yl)-2-methylphenyl)imidazo[1,2-a]pyridine-3-carboxamide], 0.071 µM; that for `Cc1ccc(-c2noc(C3CC(F)(F)C3)n2)cc1NC(=O)c1cnc2ccc(-c3cscn3)cn12` [F46], 0.013 µM. For the compound `Cn1cc(-c2ccc3ncc(C(=O)Nc4cc(-c5noc(C6CC(F)(F)C6)n5)ccc4F)n3c2)cn1` [F47], the IC50 stood at 0.033 µM.

Regarding `CC(C)(O)Cn1cc(-c2ccc3ncc(C(=O)Nc4cc(-c5noc(C6CC(F)(F)C6)n5)ccc4F)n3c2)cn1` [F48], the IC50 stood at 0.016 µM. In the case of `Cc1ccc(-c2noc(C3CC(F)(F)C3)n2)cc1NC(=O)c1cnc2cc(C3CCN(S(C)(=O)=O)CC3)ccn12` [F49, N-(5-(5-(3,3-difluorocyclobutyl)-1,2,4-oxadiazol-3-yl)-2-methylphenyl)-7-(1-(methylsulfonyl)piperidin-4-yl)imidazo[1,2-a]pyridine-3-carboxamide] it was 0.033 µM; in that of `Cc1ccc(-c2noc(C3CC(F)(F)C3)n2)cc1NC(=O)c1cnc2ccc(-c3cnn(CCN4CCOCC4)c3)cn12` [F50], 0.026 µM. In the case of `O=C(Nc1cc(-c2noc(C3CC(F)(F)C3)n2)ccc1F)c1cnc2ccc(-c3cnn(CCN4CCOCC4)c3)cn12` [F51] it was 0.085 µM. As to `Cc1ccc(-c2noc(C3CC(F)(F)C3)n2)cc1NC(=O)c1cnc2ccc(COCC(F)(F)F)cn12` [F52], the IC50 came to 0.079 µM. The result for `CC(=O)CCc1ccc2ncc(C(=O)Nc3cc(-c4noc(C5CC(F)(F)C5)n4)ccc3C)n2c1` [F53, N-(5-(5-(3,3-difluorocyclobutyl)-1,2,4-oxadiazol-3-yl)-2-methylphenyl)-6-(3-oxobutyl)imidazo[1,2-a]pyridine-3-carboxamide] reads 0.045 µM; that for `Cc1ccc(-c2noc(C3CC(F)(F)C3)n2)cc1NC(=O)c1cnc2ccc(CCC(C)(C)O)cn12` [F54, N-(5-(5-(3,3-difluorocyclobutyl)-1,2,4-oxadiazol-3-yl)-2-methylphenyl)-6-(3-hydroxy-3-methylbutyl)imidazo[1,2-a]pyridine-3-carboxamide], 0.031 µM; that for `Cc1ccc(-c2noc(CCC3(O)CC3)n2)cc1NC(=O)c1cnc2ccccn12` [F55a, N-(5-(5-(2-(1-hydroxycyclopropyl)ethyl)-1,2,4-oxadiazol-3-yl)-2-methylphenyl)imidazo[1,2-a]pyridine-3-carboxamide], 0.092 µM. In the case of `Cc1ccc(-c2noc(C3CCC3)n2)cc1NC(=O)c1cnc2ccccn12` [F57] it was 0.023 µM; in that of `Cc1ccc(-c2noc(C3CC(C)(C)C3)n2)cc1NC(=O)c1cnc2ccccn12` [F58], 0.02 µM; in that of `Cc1ccc(-c2noc(C3CC(F)(F)C3)n2)cc1NC(=O)c1cnc2cc(N3CCOCC3)ccn12` [F59, N-(5-(5-(3,3-difluorocyclobutyl)-1,2,4-oxadiazol-3-yl)-2-methylphenyl)-7-morpholinoimidazo[1,2-a]pyridine-3-carboxamide], 0.007 µM. In the case of `Cc1nnc(-c2ccc3ncc(C(=O)Nc4cc(-c5noc(C6CC(F)(F)C6)n5)ccc4F)n3c2)[nH]1` [F61, N-(5-(5-(3,3-difluorocyclobutyl)-1,2,4-oxadiazol-3-yl)-2-fluorophenyl)-6-(5-methyl-4H-1,2,4-triazol-3-yl)imidazo[1,2-a]pyridine-3-carboxamide] it was 0.154 µM; in that of `Cc1ccc(-c2noc(C3CC(F)(F)C3)n2)cc1NC(=O)c1cnc2ccc(CCN3CCN(C)CC3)cn12` [F63, N-(5-(5-(3,3-difluorocyclobutyl)-1,2,4-oxadiazol-3-yl)-2-methylphenyl)-6-(2-(4-methylpiperazin-1-yl)ethyl)imidazo[1,2-a]pyridine-3-carboxamide], 0.082 µM; in that of `Cc1ccc(-c2noc(C3CC3(F)F)n2)cc1NC(=O)c1cnc2ccccn12` (stereo not drawn) [F64, N-(5-(5-(2,2-difluorocyclopropyl)-1,2,4-oxadiazol-3-yl)-2-methylphenyl)imidazo[1,2-a]pyridine-3-carboxamide], 0.052 µM. `Cc1ccc(-c2noc(C3CC(F)(F)C3)n2)cc1NC(=O)c1cnc2cc(-c3c[nH]nn3)ccn12` [F65, N-(5-(5-(3,3-difluorocyclobutyl)-1,2,4-oxadiazol-3-yl)-2-methylphenyl)-7-(1H-1,2,3-triazol-4-yl)imidazo[1,2-a]pyridine-3-carboxamide]: the IC50 is 0.013 µM.

Take `Cc1ccc(-c2noc(C3CC(F)(F)C3)n2)cc1NC(=O)c1cnc2cc(-c3cn(CCO)nn3)ccn12` [F66, N-(5-(5-(3,3-difluorocyclobutyl)-1,2,4-oxadiazol-3-yl)-2-methylphenyl)-7-(1-(2-hydroxyethyl)-1H-1,2,3-triazol-4-yl)imidazo[1,2-a]pyridine-3-carboxamide]: the 50% inhibitory concentration (IC50) was found to be 0.016 µM. The result for `Cc1cc(C)c(-c2noc(C3CC(F)(F)C3)n2)cc1NC(=O)c1cnc2ccccn12` [F67] reads 0.049 µM; that for `Cc1ccc(-c2noc(C3CC(F)(F)C3)n2)cc1NC(=O)c1cnc2cc(N3CCOC3=O)ccn12` [F68], 0.039 µM; that for `Cc1ccc(-c2noc(C3CCCC3)n2)cc1NC(=O)c1cnc2ccccn12` [F74], 0.033 µM.

For the compound `Cc1ccc(-c2noc(C3CC4(CC(=O)C4)C3)n2)cc1NC(=O)c1cnc2ccccn12` [F75, N-(2-methyl-5-(5-(6-oxospiro[3.3]heptan-2-yl)-1,2,4-oxadiazol-3-yl)phenyl)imidazo[1,2-a]pyridine-3-carboxamide], the IC50 was 0.017 µM. In the case of `Cc1ccc(-c2noc(C3CC(F)(F)C3)n2)cc1NC(=O)c1cnc2cc(N3CCCC3=O)ccn12` [F76] it was 0.037 µM; in that of `Cc1ccc(-c2noc(C3CC(F)(F)C3)n2)cc1NC(=O)c1cnc2ccc(COCC(F)F)cn12` [F77], 0.032 µM. The result for `Cc1nnc(-c2ccc3ncc(C(=O)Nc4cc(-c5noc(C6CC(F)(F)C6)n5)ccc4C)n3c2)[nH]1` [F79, N-(5-(5-(3,3-difluorocyclobutyl)-1,2,4-oxadiazol-3-yl)-2-methylphenyl)-6-(5-methyl-1H-1,2,4-triazol-3-yl)imidazo[1,2-a]pyridine-3-carboxamide] reads 0.055 µM; that for `[2H]C([2H])([2H])c1ccn2c(C(=O)Nc3cc(-c4noc(C5CC(F)(F)C5)n4)ccc3C)cnc2c1` [F80], 0.019 µM. The result for `Cc1ccc(-c2noc(C3CC(F)(F)C3)n2)cc1NC(=O)c1cnc2ccc(N3CCOCC3)cn12` [F81] reads 0.026 µM.

By IC50 is commonly meant the concentration that gives 50% inhibition.
